Data on 51 molecules can be found in PubChem BioAssay AID1996.

SMILES strings stand for the structures. Converted amounts (≈) assume the structure as drawn.

The conditions of this series: buffer; pH 7.4; 200.0 µM.
One may read the kinetic solubility as the concentration staying in solution when a stock, usually in DMSO, is diluted into the medium. Consider `Cc1cnc(NC(=O)CC2OC(=O)c3ccccc32)s1` (stereo unspecified), for which the kinetic solubility is 0.0065 mg/mL (≈ 22.5 µM). Next, `Cn1c(C(=O)N2CCN(c3ccccn3)CC2)cc2ccccc21`: 0.0438 mg/mL (≈ 137 µM); `CC(NC(=O)CSc1ccccc1)c1ccccc1` (stereo unspecified): 0.0371 mg/mL (≈ 137 µM); `O=C1Nc2c(ccc(Cl)c2Cl)C(=O)C1(F)c1ccccc1` (stereo unspecified): < 0.0007 mg/mL. Next, `OC(CN1CCN(Cc2ccccc2)CC1)c1ccc(Br)cc1` (stereo unspecified): 0.0081 mg/mL (≈ 21.6 µM); `COc1cc(C(=S)N2CCOCC2)cc(OC)c1OC`: > 0.0446 mg/mL; `Fc1ccc(-c2nnc(N3CCOCC3)c3ccccc23)cc1F`: > 0.0491 mg/mL. The same measure for `c1cncc(-c2csc(-c3cccnc3)n2)c1`: > 0.0359 mg/mL. For `Cc1ccc(C(=O)NS(=O)(=O)c2ccc(C)cc2)cc1`, the kinetic solubility is > 0.0434 mg/mL. As to `CCCN1C2CCCC1CC(NC(=S)NCCCOCC)C2` (stereo unspecified), the solubility (kinetic) is > 0.0491 mg/mL.

`CCc1nnc(NC(=O)C2(C)COC(c3ccccc3)OC2)s1` (stereo unspecified): the solubility (kinetic) is > 0.05 mg/mL. The same measure for `Cc1ccc(C2C(C(=O)c3ccco3)=C(O)C(=O)N2c2ncccn2)cc1` (stereo unspecified): > 0.0542 mg/mL; for `COC(=O)c1c(C)[nH]c(C(=O)C(C)OC(=O)C2CC2)c1C` (stereo unspecified): 0.0397 mg/mL (≈ 135 µM); for `Cc1ccc(Sc2ccc(C(=O)N(C)C)cc2[N+](=O)[O-])cc1`: 0.035 mg/mL (≈ 111 µM).

Consider `OC[C@H]1O[C@@H](n2cnc3c(Nc4ccccc4)ncnc32)[C@H](O)[C@@H]1O`, for which the solubility (kinetic) is > 0.0515 mg/mL. Next, `C[N+](C)(C)CC(O)CC(=O)O.[Cl-]` (stereo unspecified): > 0.0296 mg/mL; `CC(=O)/C(C#N)=C1\NC(=O)C(Cc2ccc(F)cc2)S1` (stereo unspecified): > 0.0435 mg/mL. Molecule `O=C(NCc1csc(-c2cccs2)n1)c1cccc(Cl)c1` showed a solubility (kinetic) of 0.0079 mg/mL (≈ 23.6 µM). Next, `COc1ccc(NC(=S)N2CCCC2)c(OC)c1`: > 0.04 mg/mL; `O=C(NCCC(=O)N1CCc2ccccc21)c1ccco1`: > 0.0426 mg/mL; `NC(N)=NC1=NC(=O)C(Cc2ccccc2)S1` (stereo unspecified): > 0.0372 mg/mL.

For `CCN(CC(=O)Nc1cc(Cl)ccc1C)C(=O)CC1CCCC1`, the solubility (kinetic) is > 0.0505 mg/mL.

Take `CC(OC(=O)CNC(=O)C1CCCCC1)C(=O)NCc1ccccc1` (stereo unspecified): the solubility (kinetic) was > 0.052 mg/mL.

`CCCCN(C(=O)c1cc(-c2ccncc2)nc2ccccc12)c1c(N)n(CC(C)C)c(=O)[nH]c1=O` yielded a kinetic solubility of 0.01 mg/mL (≈ 20.6 µM). Next, `C(=C\c1ccccc1)/CSc1nc2ncccc2[nH]1`: 0.0089 mg/mL (≈ 33.3 µM); `CC(C)c1ccc(OCC(=O)NCc2ccccc2)cc1`: 0.0032 mg/mL (≈ 11.3 µM). For `CCN1CCN(C(=S)NC(CC(=O)c2ccccc2)c2ccccc2)CC1` (stereo unspecified), the kinetic solubility came out at 0.0498 mg/mL (≈ 131 µM). Next, `O=C(O)C(Cc1ccc(O)cc1)N1C(=O)c2ccccc2C1=O` (stereo unspecified): > 0.0467 mg/mL. The same measure for `COc1ccc(S(=O)(=O)N2CCCCC2)cc1NS(=O)(=O)c1ccc(CNC(C)=O)cc1`: 0.0625 mg/mL (≈ 130 µM). Next, `N#Cc1cccc(NC(=O)CN2CCN(Cc3ccccc3)CC2)c1`: 0.0498 mg/mL (≈ 149 µM); `CC(C)CNC(=S)N1CCC(C(=O)c2ccc(F)cc2)CC1`: > 0.0484 mg/mL; `CCn1c(C)c(C)c2cc(C(=O)NCCc3ccco3)ccc21`: 0.0244 mg/mL (≈ 78.6 µM).

As to `O=C(COC(=O)C(CO)NS(=O)(=O)c1ccc(Br)cc1)Nc1ccc2c(c1)OCCO2` (stereo unspecified), the kinetic solubility was > 0.0773 mg/mL.

Molecule `CCN1C(=O)C(=O)N(Cc2ccc(OC)c(F)c2)C1=O` gave a solubility (kinetic) of 0.0404 mg/mL (≈ 144 µM).

`COc1ccc(S(=O)(=O)NCc2ccccn2)cc1OC` displayed a solubility (kinetic) of 0.043 mg/mL (≈ 139 µM). The same measure for `CCOc1ccc(C(C)NC(=S)NCc2ccc(F)cc2)cc1` (stereo unspecified): 0.0028 mg/mL (≈ 8.42 µM); for `COc1ccc(S(=O)(=O)N2CCN(C(=O)N(C)C)C2C)cc1` (stereo unspecified): > 0.0491 mg/mL. Next, `Cc1cc(C)cc(N(CCC#N)C(=O)CSc2nc3ccccc3c(=O)[nH]2)c1`: 0.0288 mg/mL (≈ 73.4 µM). In the case of `NC12CC3CC(C1)CC(CC(=O)O)(C3)C2`, the kinetic solubility was 0.0236 mg/mL (≈ 113 µM). In turn, `O=C(c1ccccc1)c1ccc(-n2ccnc2)c([N+](=O)[O-])c1` displayed a solubility (kinetic) of 0.0344 mg/mL (≈ 117 µM). The same measure for `CC(C)Cc1csc(NC(=O)c2ccc(Br)cc2)c1C(=O)O`: 0.0536 mg/mL (≈ 140 µM); for `Cc1ccc(OCCNC(=O)c2cc(=O)[nH]c3ccccc23)cc1`: 0.002 mg/mL (≈ 6.2 µM). The same measure for `CC(C)Nc1nc2nonc2nc1Nc1ccccc1`: > 0.0405 mg/mL; for `N#Cc1ccccc1NC(=O)COC(=O)c1ccc(F)cc1F`: 0.0111 mg/mL (≈ 35.1 µM); for `CC1(C)CC(NC(=S)NC2CC2)CC(C)(C)N1`: > 0.0383 mg/mL. Consider `CC(C(=O)c1c[nH]c2ccccc12)N1CCOCC1` (stereo unspecified), for which the solubility (kinetic) was > 0.0387 mg/mL. Next, `CCOC(=O)c1sc2nc(C)nc(NC3CCC(O)CC3)c2c1C` (stereo unspecified): < 0.0002 mg/mL; `CCCCN1C(=O)NC(NC(=O)C2CC2)(C(F)(F)F)C1=O` (stereo unspecified): > 0.0461 mg/mL. Next, `Cc1ccsc1C(=O)OCC(=O)N1C(C)CCCC1C` (stereo unspecified): > 0.0443 mg/mL. `COC(=O)c1c(C)oc(C)c1S(=O)(=O)NCc1ccco1`: the solubility (kinetic) is > 0.047 mg/mL. Next, `COc1ccccc1OCCC(=O)OCC(=O)NCc1ccc(Cl)cc1`: 0.0034 mg/mL (≈ 9 µM).
